Experimental data as given in US6706663B2, “Herbicidal 3-heterocyclic substituted benzisothiazole and benzisoxazole compounds” (Wyeth, priority 2000, dated 2004).

Key:
[1] = test system: CYPIR (Cyperus iria); experiment: Flooded paddy, preemergence weed control; type: in vivo; conditions: rated 3-4 weeks after treatment, 0-9 rating scale
How it was run: (§1)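 Greenhouse paddy test, preemergence. Seeds planted in the top 0.5 cm of silt loam soil, which remained flooded at 1.5–3 cm depth. Scored 0-9 by visual comparison with control.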

[2] = test system: GLXMAW (Soybean, Williams); experiment: Preemergence herbicidal evaluation; type: in vivo, Glycine max, (L.) Merr. cv Williams; conditions: preemergence, rated 4-5 weeks after treatment
[3] = test system: TRZAWR (Wheat, Winter, cv Riband); experiment: Postemergence herbicidal evaluation; type: in vivo, Triticum aestivum; conditions: postemergence
How it was run: (§2)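 Seedlings grown for about two weeks were sprayed postemergence and then kept under standard greenhouse care. Injury was rated visually 4–5 weeks after treatment on a 0–9 scale against untreated controls, and ratings from repeat tests were averaged.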

[4] = test system: ZEAMX (Corn, Field); experiment: Preemergence herbicidal evaluation; type: in vivo, Zea mays, L.; conditions: preemergence, rated 4-5 weeks after treatment
[5] = test system: SETVI (Setaria viridis); experiment: Preemergence herbicidal evaluation; type: in vivo, (L.) Beau; conditions: preemergence, rated 4-5 weeks after treatment
How it was run: (§3)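 Seeds mixed with potting soil were planted atop about one inch of soil, then sprayed with test compound in aqueous acetone. Cups were kept in the greenhouse and rated visually 4–5 weeks after treatment on a 0–9 scale against untreated control.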

[6] = test system: ECHCG (Echinochloa crus-galli); experiment: Preemergence herbicidal evaluation; type: in vivo, (L.) Beau; conditions: preemergence, rated 4-5 weeks after treatment
How it was run: as §3

[7] = test system: ECHORC (Echinochloa oryzoides); experiment: Flooded paddy, preemergence weed control; type: in vivo, Echinochloa oryzoides (Ard.) Fritsch.; conditions: rated 3-4 weeks after treatment, 0-9 rating scale
How it was run: as §1

[8] = test system: MOOVA (Monochoria vaginalis); experiment: Flooded paddy, preemergence weed control; type: in vivo, Presl.; conditions: rated 3-4 weeks after treatment, 0-9 rating scale
How it was run: as §1

[9] = test system: IPOHE (Ipomoea hederacea); experiment: Postemergence herbicidal evaluation; type: in vivo, (L.) Jacq.; conditions: postemergence
How it was run: as §2

[10] = test system: SETVI (Setaria viridis); experiment: Postemergence herbicidal evaluation; type: in vivo, (L.) Beau; conditions: postemergence
How it was run: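 ~2-wk seedlings; spray 0.0040–1.000 kg/ha in 50/50 acetone/water + 0.5% TWEEN 20, 40 psi nozzle. Greenhouse hold; visual 0–9 rating vs control at 4–5 wk; multiple tests averaged.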

[11] = test system: GLXMA (Soybean); experiment: Preemergence herbicidal evaluation; type: in vivo, Glycine max, (L.) Merr.; conditions: preemergence, rated 4-5 weeks after treatment

SMILES	Preemergence herbicidal rating GLXMAW ([2]; rate 0.0620 kg/ha)	Preemergence herbicidal rating GLXMAW ([2]; rate 0.1250 kg/ha)	Preemergence herbicidal rating GLXMAW ([2]; rate 0.2500 kg/ha)	TRZAWR herbicidal rating ([3]; rate 0.0320 kg/ha)	TRZAWR herbicidal rating ([3]; rate 0.0620 kg/ha)	Preemergence herbicidal rating ZEAMX ([4]; rate 0.0620 kg/ha)	Preemergence herbicidal rating ZEAMX ([4]; rate 0.1250 kg/ha)	Preemergence herbicidal rating ZEAMX ([4]; rate 0.2500 kg/ha)	Preemergence herbicidal rating SETVI ([5]; rate 0.0620 kg/ha)	Preemergence herbicidal rating SETVI ([5]; rate 0.1250 kg/ha)	Preemergence herbicidal rating SETVI ([5]; rate 0.2500 kg/ha)	Preemergence herbicidal rating ECHCG ([6]; rate 0.0620 kg/ha)	Preemergence herbicidal rating ECHCG ([6]; rate 0.1250 kg/ha)	Preemergence herbicidal rating ECHCG ([6]; rate 0.2500 kg/ha)	IPOHE herbicidal rating ([9]; rate 0.0320 kg/ha)	IPOHE herbicidal rating ([9]; rate 0.0620 kg/ha)	SETVI herbicidal rating ([10]; rate 0.0320 kg/ha)	SETVI herbicidal rating ([10]; rate 0.0620 kg/ha)	Preemergence herbicidal rating GLXMA ([11]; rate 0.0620 kg/ha)	Preemergence herbicidal rating GLXMA ([11]; rate 0.1250 kg/ha)	further results
CSCC1COC(c2nsc3ccc(-n4c(=O)cc(C(F)(F)F)n(C)c4=O)cc23)O1 (centres unmarked) [Compound 84, 1-methyl-3-[3-[4-[(methylthio)methyl]-1,3-dioxolan-2-yl]-1,2-benzisothiazol-5-yl]-6-(trifluoromethyl)uracil]	7.0	9.0	9.0	4.8	6.3	3.7	6.3	8.0	3.5	7.5	9.0	4.0	6.7	9.0	9.0	9.0	6.0	9.0	9.0	9.0	herbicidal rating, CYPIR ([1]; rate 0.0080 kg/ha): 0.0; herbicidal rating, CYPIR ([1]; rate 0.0320 kg/ha): 1.5; herbicidal rating, CYPIR ([1]; rate 0.1250 kg/ha): 6.0; TRZAWR herbicidal rating ([3]; rate 0.1250 kg/ha): 9.0; herbicidal rating, ECHORC ([7]; rate 0.0080 kg/ha): 0.0; herbicidal rating, ECHORC ([7]; rate 0.0320 kg/ha): 7.5; herbicidal rating, ECHORC ([7]; rate 0.1250 kg/ha): 8.0; herbicidal rating, MOOVA ([8]; rate 0.0080 kg/ha): 9.0; herbicidal rating, MOOVA ([8]; rate 0.0320 kg/ha): 9.0; herbicidal rating, MOOVA ([8]; rate 0.1250 kg/ha): 9.0; IPOHE herbicidal rating ([9]; rate 0.1250 kg/ha): 9.0; Preemergence herbicidal rating GLXMA ([11]; rate 0.2500 kg/ha): 9.0
Cn1c(C(F)(F)F)cc(=O)n(-c2ccc3snc(C4OCC(C[S+](C)[O-])O4)c3c2)c1=O (centres unmarked) [Compound 88, 1-methyl-3-[3-[4-[(methylsulfinyl)methyl]-1,3-dioxolan-2-yl]-1,2-benzisothiazol-5-yl]-6-(trifluoromethyl)uracil]	9.0	9.0	9.0	3.0	3.5	3.5	6.0	7.0	5.5	9.0	9.0	5.5	6.5	9.0	9.0	9.0	9.0	9.0	9.0	9.0	CYPIR herbicidal rating ([1]; rate 0.0320 kg/ha): 0.0; CYPIR herbicidal rating ([1]; rate 0.1250 kg/ha): 9.0; ECHORC herbicidal rating ([7]; rate 0.0320 kg/ha): 0.0; ECHORC herbicidal rating ([7]; rate 0.1250 kg/ha): 0.0; MOOVA herbicidal rating ([8]; rate 0.0320 kg/ha): 0.0; MOOVA herbicidal rating ([8]; rate 0.1250 kg/ha): 9.0; Preemergence herbicidal rating GLXMA ([11]; rate 0.2500 kg/ha): 9.0
